Reference: paper PMC9475553, “SHF Acts as a Novel Tumor Suppressor in Glioblastoma Multiforme by Disrupting STAT3 Dimerization” (Advanced Science, 2022)

Columns and labels:
[1] = system: intracranial U87 xenograft in nude mice; test: Intracranial U87 xenograft tumor growth, bioluminescence; format: in vivo, mouse; details: female nude mice, 10 µg i.p. once every 2 days from third day after implantation; vs SC; n = 6, p < 0.01
Text: Considering that the SH2 domain predominantly represents the inhibition of SHF on STAT3 dimerization and activity, we speculated that this domain may be an optional target for GBM suppression. To this end, we analyzed the mechanical interaction of SHF and STAT3. The structures of human SHF (aa265‐421) and STAT3 (aa130‐715). both of which spanned their respective SH2 domain. were simulated by Swiss‐Model server (https://swissmodel.expasy.org/). To simulate the interaction of SHF and STAT3, Discovery studio 2018 was employed to complete protein‐protein docking using ZDOCK as an initial stage. A rigid body molecular docking algorithm utilizing a fast Fourier transform (FFT) algorithm was used to further improve performance for searching in translational space. […] Next, we determined the implication of C16 in tumor inhibition. […] A concentration of 25 uM was determined to be adequate for use in the subsequent experiments. […]
Figure 7 Peptide derived from the STAT3‐binding sites of SHF is an effective GBM suppressive strategy. […] B) IF staining determined the cell penetrability and nuclear‐localization of C16. […] The relative quantification of STAT3 dimerization was listed. […] The relative quantification of STAT3/DNMT1 interaction was listed. […] The relative quantification of STAT3/DNMT1 interaction was listed. […]

GST-STAT3 = test: Pull-down assay, GST-STAT3 with peptide; format: binding; details: GST-STAT3 incubated with C16 or SC for 2 h; Anti-His magnetic beads
Experimental: Figure 7 Peptide derived from the STAT3‐binding sites of SHF is an effective GBM suppressive strategy. A) Binding model between SHF and STAT3 using ZDOCK server. […] B) IF staining determined the cell penetrability and nuclear‐localization of C16. U251 cells were incubated with C16 or SC for 2 h and performed IF staining using the indicated antibodies. Bars, 10 µm. C) The statical analysis of adsorption equilibrium assay detecting the binding of C16 and SC with recombinant STAT3. D) Pull‐down assay indicating C16 binds STAT3. GST‐STAT3 was incubated with C16 or SC for 2 h, and the pull‐down assay was performed using Anti‐His magnetic beads. E) IP assay showing the effect of C16 on STAT3 dimerization. 293T cells transfected with indicated vectors were incubated with C16 for 2 h. The relative quantification of STAT3 dimerization was listed. F) IP assay detecting the effect of C16 on the interaction of STAT3 and DNMT1. […] The relative quantification of STAT3/DNMT1 interaction was listed. […] The relative quantification of STAT3/DNMT1 interaction was listed. […] Positive cells were quantified 20 randomly selected fields per mouse (n = 6, Student's t‐test, **p < 0.01). […]
Immunoprecipitation (IP) experiments were performed to analyze the protein interactions. […] Precipitated products were analyzed by Western blot using the specified antibodies. […]

STAT3 binding in pull-down / in vitro IP (GST-STAT3): contains the STAT3 binding capacity
Substance: C16: peptide spanning SHF amino acids 388–421, palmitic acid at the N-terminus, amidated C-terminus, 3× His tags added to the C-terminal (PFSSVPEIVHHYASRKLPIKGAEHMSLLYPVAIR; palmitic acid at the N-terminus; amidated C-terminus; left off: 3× His tags, C-terminal, kept)
growth of intracranial tumors [1]: potently inhibited the growth of intracranial tumors
